Laboratory results published in ChEMBL document CHEMBL4665674, “Medicinal Chemistry Strategies for the Development of Kinase Inhibitors Targeting Point Mutations” (J Med Chem, 2020).
Blank lines part the entries; values can stand above or below the compound they belong to.

How the values were obtained:
cells = conditions: Homo sapiens, HN11, 72 h
[1] = molecular target: T1, Protein cereblon/Tyrosine-protein kinase BTK (Homo sapiens, UniProt Q06187+Q96SW2); assay: Induction of CRBN-mediated degradation of wild type BTK (unknown origin) expressed in B cells derived from X-linked agammaglobulinemia patient by immunoblot analysis; format: cell-based; conditions: b-cell
T1 sequence (Q06187 whole entry): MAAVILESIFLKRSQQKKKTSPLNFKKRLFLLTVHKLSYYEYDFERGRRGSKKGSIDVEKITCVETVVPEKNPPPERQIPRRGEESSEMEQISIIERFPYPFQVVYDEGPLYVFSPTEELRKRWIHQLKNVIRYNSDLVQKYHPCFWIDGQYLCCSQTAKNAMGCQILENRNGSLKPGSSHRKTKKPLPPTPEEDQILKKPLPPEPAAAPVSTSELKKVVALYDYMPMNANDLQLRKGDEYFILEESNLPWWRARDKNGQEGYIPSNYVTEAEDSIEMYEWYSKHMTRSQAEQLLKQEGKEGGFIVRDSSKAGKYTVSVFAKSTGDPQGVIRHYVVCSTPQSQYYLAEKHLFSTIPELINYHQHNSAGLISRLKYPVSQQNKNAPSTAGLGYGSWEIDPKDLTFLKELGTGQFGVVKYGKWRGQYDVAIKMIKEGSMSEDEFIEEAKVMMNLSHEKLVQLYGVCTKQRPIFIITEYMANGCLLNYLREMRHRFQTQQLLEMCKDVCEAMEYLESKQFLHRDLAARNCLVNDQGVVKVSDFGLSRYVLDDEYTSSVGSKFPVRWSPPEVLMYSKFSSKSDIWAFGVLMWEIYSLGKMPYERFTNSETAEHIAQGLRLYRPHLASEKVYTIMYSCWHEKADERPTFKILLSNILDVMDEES
T1 sequence (Q96SW2 whole entry): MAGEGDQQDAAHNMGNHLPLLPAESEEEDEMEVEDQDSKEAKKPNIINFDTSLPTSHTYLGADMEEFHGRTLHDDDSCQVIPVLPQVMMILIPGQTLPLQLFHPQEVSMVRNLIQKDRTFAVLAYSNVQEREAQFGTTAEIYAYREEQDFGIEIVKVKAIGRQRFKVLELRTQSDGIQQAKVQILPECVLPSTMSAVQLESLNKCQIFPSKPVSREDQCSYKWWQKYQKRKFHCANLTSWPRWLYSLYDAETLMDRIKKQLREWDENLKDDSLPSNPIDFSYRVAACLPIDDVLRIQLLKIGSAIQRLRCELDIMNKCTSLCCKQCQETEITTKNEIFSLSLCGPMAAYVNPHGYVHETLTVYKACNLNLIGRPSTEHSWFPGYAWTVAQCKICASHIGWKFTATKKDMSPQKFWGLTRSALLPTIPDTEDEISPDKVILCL

[2] = molecular target: T2, Protein cereblon/Tyrosine-protein kinase BTK (Homo sapiens, UniProt Q06187+Q96SW2, C481S); assay: Induction of CRBN-mediated degradation of BTK C481S mutant (unknown origin) expressed in B cells derived from X-linked agammaglobulinemia patient by immunoblot analysis; format: cell-based; conditions: b-cell
T2 sequence (Q06187 2-659 C481S limits assumed, stated change not applied): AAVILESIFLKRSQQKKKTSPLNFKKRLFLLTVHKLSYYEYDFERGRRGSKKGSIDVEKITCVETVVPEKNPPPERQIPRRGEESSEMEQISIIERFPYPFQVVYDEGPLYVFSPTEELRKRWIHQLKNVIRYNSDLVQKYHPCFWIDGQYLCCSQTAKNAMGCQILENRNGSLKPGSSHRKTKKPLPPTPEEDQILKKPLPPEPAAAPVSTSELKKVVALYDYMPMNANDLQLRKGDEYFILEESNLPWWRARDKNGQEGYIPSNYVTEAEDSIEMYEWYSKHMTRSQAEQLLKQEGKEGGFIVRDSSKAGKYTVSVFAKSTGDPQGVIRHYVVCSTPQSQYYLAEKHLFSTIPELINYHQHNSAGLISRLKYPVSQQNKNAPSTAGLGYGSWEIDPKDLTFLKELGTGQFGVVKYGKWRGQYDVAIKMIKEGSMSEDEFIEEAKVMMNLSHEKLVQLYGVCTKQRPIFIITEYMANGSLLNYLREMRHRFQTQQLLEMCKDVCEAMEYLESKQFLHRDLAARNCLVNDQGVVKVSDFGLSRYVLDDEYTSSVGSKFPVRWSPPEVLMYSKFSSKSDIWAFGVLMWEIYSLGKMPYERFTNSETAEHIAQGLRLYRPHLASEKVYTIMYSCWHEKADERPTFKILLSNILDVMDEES
T2 sequence (Q96SW2 whole entry, stated change not applied): as the sequence (Q96SW2 whole entry) above

[3] = molecular target: T3, Tyrosine-protein kinase BTK (Homo sapiens, UniProt Q06187); assay: Inhibition of BTK (unknown origin)
T3 sequence (Q06187 whole entry): as the sequence (Q06187 whole entry) above

[4] = molecular target: T1, Protein cereblon/Tyrosine-protein kinase BTK; assay: Induction of CRBN-mediated degradation of wild type human BTK expressed in human HeLa cells incubated for 4 days by Western blot analysis; format: cell-based
[5] = Induction of CRBN-mediated degradation of human BTK C481W mutant expressed in human HeLa cells incubated for 4 days by Western blot analysis; format: cell-based; conditions: 96 h
[6] = Induction of CRBN-mediated degradation of human BTK C481A mutant expressed in human HeLa cells incubated for 4 days by Western blot analysis; format: cell-based; conditions: 96 h
[7] = molecular target: T2, Protein cereblon/Tyrosine-protein kinase BTK; assay: Induction of CRBN-mediated degradation of human BTK C481S mutant expressed in human HeLa cells incubated for 4 days by Western blot analysis; format: cell-based
[8] = Induction of CRBN-mediated degradation of human BTK C481T mutant expressed in human HeLa cells incubated for 4 days by Western blot analysis; format: cell-based; conditions: 96 h
[9] = Induction of CRBN-mediated degradation of human BTK C481G mutant expressed in human HeLa cells incubated for 4 days by Western blot analysis; format: cell-based; conditions: 96 h
LoVo = assay: cells; format: functional, cell-based; conditions: Homo sapiens
NCI-H1975 = assay: cells; conditions: Homo sapiens
[10] = Antiproliferative activity against human NCI-H3122-CR1 cells harboring ALK L1196M mutant after 72 hrs by CellTiter-Glo assay; format: functional
[11] = Antiproliferative activity against human MGH021-4 cells harboring ALK G1269A mutant after 72 hrs by CellTiter-Glo assay; format: functional; conditions: MGH0214
[12] = Inhibition of CD74-ROS1 G2032R mutant (unknown origin) expressed in mouse Ba/F3 cells assessed as antiproliferative activity incubated for 72 hrs by CellTiter-Glo luciferase-based ATP detection assay; format: cell-based; conditions: BaF3, 72 h
[13] = Inhibition of LMNA-TRKA G595R (unknown origin) expressed in mouse Ba/F3 cells assessed as antiproliferative activity incubated for 72 hrs by CellTiter-Glo luciferase-based ATP detection assay; format: cell-based; conditions: BaF3, 72 h
[14] = molecular target: T3, Tyrosine-protein kinase BTK; assay: Inhibition of wild type BTK (unknown origin)

Structure (SMILES): C=CC(=O)Nc1cccc(Oc2nc(Nc3ccc(N4CCN(C)CC4)cc3OC)ncc2Cl)c1
IC50 (cells): 2130 nM

Structure (SMILES): Nc1ncnc2c1c(-c1ccc(Oc3ccccc3)cc1)nn2[C@@H]1CCCN(CCOCCOCC(=O)Nc2ccc3c(c2)CN(C2CCC(=O)NC2=O)C3=O)C1 (some centres undefined)
DC50 [1]: 14.6 nM | DC50 [2]: 14.9 nM

Structure (SMILES): Cc1cc(Nc2ncc(Cl)c(Nc3ccccc3S(=O)(=O)C(C)C)n2)c(OC(C)C)cc1C1CCNCC1 [CERITINIB]
GI50 [10]: 230 nM | GI50 [11]: 80 nM

Structure (SMILES): C[C@@H](Oc1cc(-c2cnn(C3CCNCC3)c2)cnc1N)c1c(Cl)ccc(F)c1Cl [CRIZOTINIB]
GI50 [10]: 2880 nM | GI50 [11]: 500 nM

Structure (SMILES): C[C@H]1CNC(=O)c2cnn3ccc(nc23)N[C@H](C)c2cc(F)ccc2O1 [REPOTRECTINIB]
IC50 [12]: 3.3 nM | IC50 [13]: 0.4 nM

Continued, values first:

IC50 [3]: 5.1 nM
Structure (SMILES): Cc1c(NC(=O)c2ccc(C(C)(C)C)cc2)cccc1-c1cn(C)c(=O)c(Nc2ccc(C(=O)N3CCN(CCCCCCNC(=O)CNc4cccc5c4C(=O)N(C4CCC(=O)NC4=O)C5=O)CC3)cc2)n1 (centres undefined)

DC50 [4]: 18 nM | DC50 [5]: 18 nM | DC50 [6]: 18 nM | DC50 [7]: 18 nM | DC50 [8]: 18 nM | DC50 [9]: 18 nM
Structure (SMILES): Nc1ncnc2c1c(-c1ccc(Oc3ccccc3)cc1)nn2[C@@H]1CCCN(C(=O)c2cn(CCOCCOCCOCCCc3ccc4c(c3)CN(C3CCC(=O)NC3=O)C4=O)nn2)C1 (some centres undefined)

IC50 (LoVo): 15 nM | IC50 (NCI-H1975): 22 nM
Structure (SMILES): CN(C)C/C=C/C(=O)Nc1cc2c(Nc3ccc(F)c(Cl)c3)ncnc2cc1O[C@H]1CCOC1 [AFATINIB]

IC50 [14]: 2.9 nM
Structure (SMILES): NC(=O)[C@H]1CCN(c2ncnc(N)c2F)C[C@@H]1N1CCC[C@@H](Nc2cc(Cl)cc(C(F)(F)F)c2)C1=O [VECABRUTINIB]
